Reference: patent publication US20240041042A1, “1-(PYRIDYL)-5-AZINYLPYRAZOLE DERIVATIVES, AND THEIR USE FOR CONTROL OF UNDESIRED PLANT GROWTH” (Bayer Aktiengesellschaft, priority 2020, published 2024)

Columns and labels:
Type in all cases: in vivo
[1] = tested on: Alopecurus myosuroides (ALOMY); assay: Pre-emergence herbicidal action against ALOMY; settings: scored visually after about 3 weeks, 100% = plants have died
How it was run: (§1)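 Pre-emergence soil-surface spray, WP/EC formulation, 0.5% additive, 600 l/ha water, rates of 320 g/ha or lower. Greenhouse, ~3 wk. Visual score, % of untreated control (100% = plants dead, 0% = like control).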

[2] = tested on: Amaranthus retroflexus (AMARE); assay: Pre-emergence herbicidal action against AMARE; settings: visual scoring after about 3 weeks vs untreated controls
How it was run: as §1

Avena fatua (AVEFA) [3] = assay: Pre-emergence herbicidal action against AVEFA; settings: 320 g/ha, visual scoring after about 3 weeks vs untreated controls
How it was run: as §1

[4] = tested on: Digitaria sanguinalis (DIGSA); assay: Pre-emergence herbicidal action against DIGSA
Source text: Seeds of monocotyledonous and dicotyledonous weed plants and crop plants are placed in plastic or organic planting pots and covered with soil. The compounds of the invention, formulated in the form of wettable powders (WP) or as emulsion concentrates (EC), are then applied to the surface of the covering soil as aqueous suspension or emulsion with addition of 0.5% additive at a water application rate equivalent to 600 l/ha. After the treatment, the pots are placed in a greenhouse and kept under good growth conditions for the trial plants. After about 3 weeks, the effect of the preparations is scored visually in comparison with untreated controls as percentages. For example, 100% activity=the plants have died, 0% activity=like control plants.
Tables A1 to A13 below show the effects of selected compounds of the general formula (I) on various harmful plants and at an application rate corresponding to 320 g/ha or lower, which were obtained by the experimental procedure mentioned above. The appendices “a”, “b” and “c” give differentiation by dosage used with otherwise the same harmful plants tested.

[5] = tested on: Echinochloa crus-galli (ECHCG); assay: Pre-emergence herbicidal action against ECHCG
How it was run: as §1

Lolium rigidum (LOLRI) [6] = assay: Pre-emergence herbicidal action against LOLRI
How it was run: as §1

[7] = tested on: Matricaria inodora (MATIN); assay: Pre-emergence herbicidal action against MATIN; settings: dosage 320 g/ha
How it was run: as §1

[8] = tested on: Pharbitis purpurea (PHBPU); assay: Pre-emergence herbicidal action against PHBPU; settings: dosage 320 g/ha
How it was run: as §1

[9] = tested on: Polygonum convolvulus (POLCO); assay: Pre-emergence herbicidal action against POLCO
How it was run: as §1

Setaria viridis (SETVI) [10] = assay: Pre-emergence herbicidal action against SETVI
How it was run: as §1

[11] = tested on: Verconica persica (VERPE); assay: Pre-emergence herbicidal action against VERPE
How it was run: as §1

Viola tricolor (VIOTR) [12] = assay: Pre-emergence herbicidal action against VIOTR
How it was run: as §1

[13] = tested on: Abutilon theophrasti (ABUTH); assay: Post-emergence herbicidal action against ABUTH; settings: 80 g/ha, visual rating about 3 weeks after treatment vs untreated controls (100% = plants have died, 0% = like control plants)
How it was run: (§2)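 Rates were 320 g/ha or below, applied as aqueous WP/EC spray with 0.5% additive (600 l/ha) onto one-leaf-stage plants. About 3 weeks later in the greenhouse, damage was scored visually against untreated plants on a 0–100% scale, where 100% means plants died.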

[14] = tested on: Alopecurus myosuroides (ALOMY); assay: Post-emergence herbicidal action against ALOMY; settings: visual rating about 3 weeks after treatment vs untreated controls (100% = plants have died, 0% = like control plants)
How it was run: as §2

[15] = tested on: Amaranthus retroflexus (AMARE); assay: Post-emergence herbicidal action against AMARE
How it was run: as §2

[16] = tested on: Digitaria sanguinalis (DIGSA); assay: Post-emergence herbicidal action against DIGSA; settings: visual rating about 3 weeks after treatment
How it was run: as §2

[17] = tested on: Echinochloa crus-galli (ECHCG); assay: Post-emergence herbicidal action against ECHCG
How it was run: as §2

[18] = tested on: Pharbitis purpurea (PHBPU); assay: Post-emergence herbicidal action against PHBPU
How it was run: as §2

[19] = tested on: Polygonum convolvulus (POLCO); assay: Post-emergence herbicidal action against POLCO
How it was run: as §2

Setaria viridis (SETVI) [20] = assay: Post-emergence herbicidal action against SETVI
How it was run: as §2

[21] = tested on: Verconica persica (VERPE); assay: Post-emergence herbicidal action against VERPE
How it was run: as §2

Avena fatua (AVEFA) [22] = assay: Post-emergence herbicidal action against AVEFA; settings: visual rating about 3 weeks after treatment
How it was run: as §2

Lolium rigidum (LOLRI) [23] = assay: Post-emergence herbicidal action against LOLRI
How it was run: as §2

Viola tricolor (VIOTR) [24] = assay: Post-emergence herbicidal action against VIOTR
How it was run: as §2

Oryza sativa (ORYSA) = settings: crop plant compatibility, 80 g/ha, effect in comparison to untreated controls
How it was run: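 One-leaf-stage crops (2–3 wk post-sowing, sandy loam, greenhouse) sprayed on green parts; 0.5% additive, 600 l/ha water. Rated by eye ~3 wk later, % vs untreated; suffixes a/b/c mark different dosages.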

[25] = 80 g/ha, visual scoring after about 3 weeks vs untreated controls
[26] = 80 g/ha, visual rating about 3 weeks after treatment vs untreated controls (100% = plants have died, 0% = like control plants)

| SMILES | Pre-emergence action against ALOMY ([1]; 80 g/ha) [%] | Pre-emergence action against ALOMY ([1]; 320 g/ha) [%] | Pre-emergence action against AMARE in % ([2]; 320 g/ha) [%] | Pre-emergence action against AVEFA in % (Avena fatua (AVEFA) [3]) [%] | Pre-emergence action against DIGSA in % [4, 25] [%] | Pre-emergence action against DIGSA in % ([4]; dosage 320 g/ha) [%] | Pre-emergence action against ECHCG in % ([5]; dosage 320 g/ha) [%] | Pre-emergence action against LOLRI in % (Lolium rigidum (LOLRI) [6]; dosage 80 g/ha) [%] | Pre-emergence action against LOLRI in % (Lolium rigidum (LOLRI) [6]; dosage 320 g/ha) [%] | Pre-emergence action against MATIN in % [7] [%] | Pre-emergence action against PHBPU in % [8] [%] | Pre-emergence action against POLCO in % ([9]; dosage 80 g/ha) [%] | Pre-emergence action against POLCO in % ([9]; dosage 320 g/ha) [%] | Pre-emergence action against SETVI in % (Setaria viridis (SETVI) [10]; dosage 80 g/ha) [%] | Pre-emergence action against SETVI in % (Setaria viridis (SETVI) [10]; dosage 320 g/ha) [%] | Pre-emergence action against VIOTR in % (Viola tricolor (VIOTR) [12]; 320 g/ha, Viola tricolor) [%] | Pre-emergence action against VIOTR in % (Viola tricolor (VIOTR) [12]; dosage 80 g/ha) [%] | Post-emergence action against AMARE in % [15, 26] [%] | Post-emergence action against DIGSA in % ([16]; 80 g/ha) [%] | Post-emergence action against PHBPU in % ([18]; dosage 80 g/ha) [%] | also measured |
| --- | --- | --- | --- | --- | --- | --- | --- | --- | --- | --- | --- | --- | --- | --- | --- | --- | --- | --- | --- | --- | --- |
| COCCOCCOC(=O)COc1nn(-c2ncccc2F)c(-c2ccc(F)nc2)c1Br [Example I-37] | 100 | 100 | 100 | 90 | 100 | 100 | 100 | 80 | 100 | 100 | 90 | 80 | 90 | 100 | 100 | 100 | 100 | 90 | 90 | 80 | Pre-emergence action against AMARE in % ([2]; 80 g/ha): 100%; Pre-emergence action against VERPE in % ([11]; dosage 80 g/ha): 80%; Pre-emergence action against VERPE in % ([11]; dosage 320 g/ha): 100%; Post-emergence action against ABUTH in % [13]: 80%; Post-emergence action against ALOMY in % ([14]; 80 g/ha): 90%; Post-emergence action against ECHCG in % ([17]; dosage 80 g/ha): 80%; Post-emergence action against POLCO in % ([19]; dosage 80 g/ha): 80%; Post-emergence action against SETVI in % (Setaria viridis (SETVI) [20]; dosage 80 g/ha): 80%; Post-emergence action against VERPE in % ([21]; dosage 80 g/ha): 80% |
| C=C(COC(=O)[C@@H](C)Oc1nn(-c2ccccn2)c(-c2ccc(F)nc2)c1Cl)C(=O)OC [Example I-322] | 80 | 100 | 100 | 90 | 100 | 100 | 100 | 90 | 100 | 80 | 90 | 80 | 90 | 90 | 100 | 100 | 80 | 80 | 80 | 80 | Pre-emergence action against ECHCG in % ([5]; dosage 80 g/ha): 80%; Post-emergence action against ALOMY in % ([14]; 320 g/ha): 80%; Post-emergence action against AMARE in % ([15]; 320 g/ha, visual rating about 3 weeks after treatment): 80%; Post-emergence action against AVEFA in % (Avena fatua (AVEFA) [22]; 80 g/ha): 80%; Post-emergence action against AVEFA in % (Avena fatua (AVEFA) [22]; 320 g/ha): 80%; Post-emergence action against DIGSA in % ([16]; 320 g/ha): 80%; Post-emergence action against ECHCG in % ([17]; dosage 320 g/ha): 80%; Post-emergence action against LOLRI in % (Lolium rigidum (LOLRI) [23]; dosage 80 g/ha): 80%; Post-emergence action against LOLRI in % (Lolium rigidum (LOLRI) [23]; dosage 320 g/ha): 80%; Post-emergence action against PHBPU in % ([18]; dosage 320 g/ha): 80%; Post-emergence action against POLCO in % ([19]; dosage 80 g/ha): 80%; Post-emergence action against POLCO in % ([19]; dosage 320 g/ha): 80%; Post-emergence action against SETVI in % (Setaria viridis (SETVI) [20]; dosage 80 g/ha): 80%; Post-emergence action against SETVI in % (Setaria viridis (SETVI) [20]; dosage 320 g/ha): 80%; Post-emergence action against VERPE in % ([21]; 320 g/ha, VERPE): 80%; Post-emergence action against VERPE in % ([21]; dosage 80 g/ha): 80%; Post-emergence action against VIOTR in % (Viola tricolor (VIOTR) [24]; 80 g/ha): 80%; Post-emergence action against VIOTR in % (Viola tricolor (VIOTR) [24]; 320 g/ha): 80%; Post-emergence action against ORYSA in % (Oryza sativa (ORYSA)): 10% |
